Laboratory results: ChEMBL document CHEMBL1909046, “DrugMatrix in vitro pharmacology data”

How the values were obtained:
[1] = DRUGMATRIX: beta-Lactamase enzyme inhibition (substrate: Nitrocefin); parameters: species or system Bacillus cereus; conditions: Not Active = under 50% inhibition at 10 µM
Cannabinoid receptor 1 = Cannabinoid receptor 1 (Homo sapiens, UniProt P21554); format: cell membranes, Chem-1, Membrane; conditions: chem-1; note: in other assays of this panel Not Active means under 50% inhibition at 10 µM
Cannabinoid receptor 1, sequence (P21554 whole entry): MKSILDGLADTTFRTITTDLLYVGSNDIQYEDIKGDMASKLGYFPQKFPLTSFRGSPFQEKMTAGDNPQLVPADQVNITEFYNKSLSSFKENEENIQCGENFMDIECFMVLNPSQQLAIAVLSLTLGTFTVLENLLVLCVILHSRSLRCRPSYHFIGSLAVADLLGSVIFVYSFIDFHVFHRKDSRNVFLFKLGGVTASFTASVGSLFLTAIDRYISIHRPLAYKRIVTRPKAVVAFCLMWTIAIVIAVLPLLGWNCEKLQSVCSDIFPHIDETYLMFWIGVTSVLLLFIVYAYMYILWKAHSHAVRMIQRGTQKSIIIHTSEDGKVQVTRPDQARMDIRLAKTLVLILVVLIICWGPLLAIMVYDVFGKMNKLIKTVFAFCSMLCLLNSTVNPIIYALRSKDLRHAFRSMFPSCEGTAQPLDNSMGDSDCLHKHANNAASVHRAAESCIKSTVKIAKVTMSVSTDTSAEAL

D(3) dopamine receptor = D(3) dopamine receptor (Homo sapiens, UniProt P35462); assay: DRUGMATRIX: Dopamine D3 radioligand binding (ligand: [3H] Spiperone); format: cell membranes, CHO, Membrane; conditions: for Ki: read-out: Ki
D(3) dopamine receptor, sequence (P35462 whole entry): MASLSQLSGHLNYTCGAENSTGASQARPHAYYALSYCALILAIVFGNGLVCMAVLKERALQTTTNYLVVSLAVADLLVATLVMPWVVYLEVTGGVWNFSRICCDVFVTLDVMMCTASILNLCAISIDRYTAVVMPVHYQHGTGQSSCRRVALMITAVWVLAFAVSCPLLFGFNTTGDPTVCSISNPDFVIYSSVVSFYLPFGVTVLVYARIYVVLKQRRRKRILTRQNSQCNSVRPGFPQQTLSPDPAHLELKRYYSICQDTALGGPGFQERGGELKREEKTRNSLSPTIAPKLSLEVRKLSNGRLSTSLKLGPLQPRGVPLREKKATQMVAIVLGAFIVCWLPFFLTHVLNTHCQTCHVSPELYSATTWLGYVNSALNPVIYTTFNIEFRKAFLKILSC

Histamine H2 receptor = Histamine H2 receptor (Homo sapiens, UniProt P25021); format: cell membranes, CHO-K1, Membrane; note: in other assays of this panel Not Active means under 50% inhibition at 10 µM
Histamine H2 receptor, sequence (P25021 whole entry): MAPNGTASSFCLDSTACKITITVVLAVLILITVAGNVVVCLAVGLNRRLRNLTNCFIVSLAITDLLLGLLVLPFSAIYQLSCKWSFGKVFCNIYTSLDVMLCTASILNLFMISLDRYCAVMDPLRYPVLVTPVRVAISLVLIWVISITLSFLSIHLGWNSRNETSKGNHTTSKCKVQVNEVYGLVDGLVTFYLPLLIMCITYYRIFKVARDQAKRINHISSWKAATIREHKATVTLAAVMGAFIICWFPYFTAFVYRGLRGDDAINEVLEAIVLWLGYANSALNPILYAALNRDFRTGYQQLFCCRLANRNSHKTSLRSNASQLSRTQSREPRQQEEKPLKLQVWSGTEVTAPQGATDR

[2] = biological target: Mitogen-activated protein kinase 1 (Homo sapiens, UniProt P28482); assay: DRUGMATRIX: Protein Serine/Threonine Kinase, ERK2 enzyme inhibition (substrate: Myelin Basic Protein); parameters: species or system Escherichia coli; conditions: Not Active = under 50% inhibition at 10 µM
Mitogen-activated protein kinase 1, sequence (P28482 whole entry): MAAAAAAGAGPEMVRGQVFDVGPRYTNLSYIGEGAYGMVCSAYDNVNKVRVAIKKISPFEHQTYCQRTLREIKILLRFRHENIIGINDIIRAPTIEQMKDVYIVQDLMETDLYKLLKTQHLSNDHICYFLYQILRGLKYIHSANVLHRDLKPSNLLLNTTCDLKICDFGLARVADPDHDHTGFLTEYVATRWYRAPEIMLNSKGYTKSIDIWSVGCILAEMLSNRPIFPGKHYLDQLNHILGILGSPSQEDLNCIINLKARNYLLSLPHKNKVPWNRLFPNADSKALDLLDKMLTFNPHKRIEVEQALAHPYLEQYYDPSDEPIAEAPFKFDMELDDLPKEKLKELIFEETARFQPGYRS

Adenosine receptor A3 = biological target: T1, Adenosine receptor A3 (Homo sapiens, UniProt P0DMS8); format: cell membranes, CHO-K1, Membrane;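 note: radioligand binding assay with AB-MECA serving as the labeled ligand; in other assays of this panel Not Active means under 50% inhibition at 10 µM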
T1 sequence (P0DMS8 whole entry): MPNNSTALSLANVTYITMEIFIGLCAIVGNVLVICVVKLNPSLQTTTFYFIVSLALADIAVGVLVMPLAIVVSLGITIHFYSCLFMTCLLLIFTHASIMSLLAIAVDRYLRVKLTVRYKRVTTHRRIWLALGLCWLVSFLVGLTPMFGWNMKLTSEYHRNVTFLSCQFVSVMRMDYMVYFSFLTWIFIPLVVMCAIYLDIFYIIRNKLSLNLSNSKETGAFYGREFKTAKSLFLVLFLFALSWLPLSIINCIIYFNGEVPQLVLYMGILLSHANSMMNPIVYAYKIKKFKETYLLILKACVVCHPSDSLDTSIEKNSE

Cytochrome P450 2C19 = Cytochrome P450 2C19 (Homo sapiens, UniProt P33261); conditions: bti-tn-5b1-4; note: in other assays of this panel Not Active means under 50% inhibition at 10 µM
Cytochrome P450 2C19, sequence (P33261 whole entry): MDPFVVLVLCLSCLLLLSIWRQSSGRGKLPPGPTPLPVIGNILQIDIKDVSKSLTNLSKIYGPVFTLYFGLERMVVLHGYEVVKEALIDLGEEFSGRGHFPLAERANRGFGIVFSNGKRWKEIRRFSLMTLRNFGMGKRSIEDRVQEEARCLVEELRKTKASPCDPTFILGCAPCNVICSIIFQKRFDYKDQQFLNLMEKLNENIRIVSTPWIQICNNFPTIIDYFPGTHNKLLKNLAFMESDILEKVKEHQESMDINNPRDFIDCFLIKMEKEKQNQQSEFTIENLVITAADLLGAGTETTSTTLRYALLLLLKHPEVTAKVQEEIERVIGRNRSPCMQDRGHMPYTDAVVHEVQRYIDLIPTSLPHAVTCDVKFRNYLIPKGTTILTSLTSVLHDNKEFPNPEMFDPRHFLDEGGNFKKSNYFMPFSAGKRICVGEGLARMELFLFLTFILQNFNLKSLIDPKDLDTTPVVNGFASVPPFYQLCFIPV

SMILES	IC50 [1]	Ki [1]	IC50 (Cannabinoid receptor 1)	IC50 (D(3) dopamine receptor; cho)	IC50 (Histamine H2 receptor; cho-k1)	IC50 [2]	IC50 (Adenosine receptor A3; cho-k1)	IC50 (Cytochrome P450 2C19)	Ki (Cytochrome P450 2C19)	IC50 (D(3) dopamine receptor; read-out: IC50) [nM]	Ki (D(3) dopamine receptor) [nM]	IC50 (Histamine H2 receptor; read-out: IC50) [nM]	Ki (Histamine H2 receptor; read-out: Ki) [nM]	IC50 (Adenosine receptor A3; read-out: IC50) [nM]	Ki (Adenosine receptor A3; read-out: Ki) [nM]
O=C(O)c1cc(-c2ccc(F)cc2F)ccc1O [DIFLUNISAL]	Not Active	Not Active	Not Active	Not Active	Not Active	Not Active	Not Active	Not Active	Not Active	–	–	–	–	–	–
CCn1cc(C(=O)O)c(=O)c2cc(F)c(N3CCNC(C)C3)c(F)c21 (centres undefined) [LOMEFLOXACIN]	Not Active	Not Active	Not Active	Not Active	Not Active	Not Active	Not Active	Not Active	Not Active	–	–	–	–	–	–
CN(C)C(=O)Oc1cccc([N+](C)(C)C)c1.[Br-] [NEOSTIGMINE BROMIDE]	Not Active	Not Active	Not Active	Not Active	Not Active	Not Active	Not Active	Not Active	Not Active	–	–	–	–	–	–
CN1CCCC(CN2c3ccccc3Sc3ccccc32)C1 (centres undefined) [MEPAZINE]	Not Active	Not Active	Not Active	–	Not Active	Not Active	Not Active	Not Active	Not Active	2010	681	–	–	–	–
ClC(Cl)(Cl)Cl [CARBON TETRACHLORIDE]	Not Active	Not Active	Not Active	Not Active	Not Active	Not Active	Not Active	Not Active	Not Active	–	–	–	–	–	–
CCN(CC)CCCC(C)Nc1c2ccc(Cl)cc2nc2ccc(OC)cc12 (centres undefined) [QUINACRINE]	Not Active	Not Active	Not Active	–	–	Not Active	Not Active	Not Active	Not Active	1320	448	3540	3480	–	–
CC[C@H]1[C@@H]2C[C@H]3[C@@H]4N(C)c5ccccc5[C@]45C[C@@H]([C@@H]2[C@H]5O)N3[C@@H]1O [AJMALINE]	Not Active	Not Active	Not Active	Not Active	Not Active	Not Active	Not Active	Not Active	Not Active	–	–	–	–	–	–
C[C@H]1[C@H](NC(=O)/C(=N\OC(C)(C)C(=O)O)c2csc(N)n2)C(=O)N1S(=O)(=O)O [AZTREONAM]	Not Active	Not Active	Not Active	Not Active	Not Active	Not Active	Not Active	Not Active	Not Active	–	–	–	–	–	–
CO/N=C(\C(=O)N[C@@H]1C(=O)N2C(C(=O)O)=C(COC(C)=O)CS[C@H]12)c1csc(N)n1 [CEFOTAXIME]	Not Active	Not Active	Not Active	Not Active	Not Active	–	Not Active	Not Active	Not Active	–	–	–	–	–	–
CC(C)c1c(C(=O)Nc2ccccc2)c(-c2ccccc2)c(-c2ccc(F)cc2)n1CC[C@@H](O)C[C@@H](O)CC(=O)O [ATORVASTATIN]	Not Active	Not Active	Not Active	Not Active	Not Active	Not Active	Not Active	–	–	–	–	–	–	–	–
CC(C)C[C@H]1C(=O)N2CCC[C@H]2[C@]2(O)O[C@](NC(=O)[C@@H]3C=C4c5cccc6[nH]cc(c56)C[C@H]4N(C)C3)(C(C)C)C(=O)N12 [ERGOCRYPTINE]	Not Active	Not Active	Not Active	–	Not Active	Not Active	Not Active	Not Active	Not Active	0.589	0.2	–	–	–	–
CCN(C(C)=O)c1cccc(-c2ccnc3c(C#N)cnn23)c1 [ZALEPLON]	Not Active	Not Active	Not Active	Not Active	Not Active	Not Active	Not Active	Not Active	Not Active	–	–	–	–	–	–
N[C@@H](Cn1ccc(=O)c(O)c1)C(=O)O [L-MIMOSINE]	Not Active	Not Active	Not Active	Not Active	Not Active	Not Active	Not Active	–	–	–	–	–	–	–	–
Nc1cc(-c2ccncc2)c[nH]c1=O [INAMRINONE]	Not Active	Not Active	Not Active	Not Active	Not Active	Not Active	Not Active	Not Active	Not Active	–	–	–	–	–	–
NC(=O)c1cccc(N)c1 [3-AMINOBENZAMIDE]	Not Active	Not Active	Not Active	Not Active	Not Active	Not Active	Not Active	Not Active	Not Active	–	–	–	–	–	–
NC(=O)c1cccnc1 [NIACINAMIDE]	Not Active	Not Active	Not Active	Not Active	Not Active	Not Active	Not Active	Not Active	Not Active	–	–	–	–	–	–
CCC1=C(C)CN(C(=O)NCCc2ccc(S(=O)(=O)NC(=O)N[C@H]3CC[C@H](C)CC3)cc2)C1=O [GLIMEPIRIDE]	Not Active	Not Active	Not Active	Not Active	Not Active	Not Active	Not Active	Not Active	Not Active	–	–	–	–	–	–
CC(C)NCC(O)c1ccccc1Cl (centres undefined) [CLORPRENALINE]	Not Active	Not Active	Not Active	Not Active	Not Active	Not Active	Not Active	Not Active	Not Active	–	–	–	–	–	–
CC(=O)OCC(=O)[C@@]12OC(C)(C)O[C@@H]1C[C@H]1[C@@H]3C[C@H](F)C4=CC(=O)C=C[C@]4(C)[C@@]3(F)[C@@H](O)C[C@@]12C [FLUOCINONIDE]	Not Active	Not Active	Not Active	Not Active	Not Active	Not Active	Not Active	–	–	–	–	–	–	–	–
CCOc1nc2cccc(C(=O)O)c2n1Cc1ccc(-c2ccccc2-c2nnn[nH]2)cc1	Not Active	Not Active	Not Active	Not Active	Not Active	Not Active	–	–	–	–	–	–	–	1220	690
O=C(c1ccccc1F)N1CCC(Cc2ccccc2)CC1	Not Active	Not Active	Not Active	Not Active	Not Active	Not Active	Not Active	–	–	–	–	–	–	–	–
N=C(N)c1ccc(OCCCCCOc2ccc(C(=N)N)cc2)cc1 [PENTAMIDINE]	Not Active	Not Active	Not Active	–	Not Active	Not Active	Not Active	Not Active	Not Active	–	–	–	–	–	–
C[C@]12C=CC(=O)C=C1CC[C@H]1[C@@H]3C[C@@H](O)[C@](O)(C(=O)CO)[C@@]3(C)C[C@H](O)[C@@]12F [TRIAMCINOLONE]	Not Active	Not Active	Not Active	Not Active	Not Active	Not Active	Not Active	–	–	–	–	–	–	–	–
CC(C)(C(=O)O)c1ccc(C(O)CCCN2CCC(C(O)(c3ccccc3)c3ccccc3)CC2)cc1 (centres undefined) [FEXOFENADINE]	Not Active	Not Active	Not Active	Not Active	Not Active	Not Active	Not Active	–	–	–	–	–	–	–	–
NNCCc1ccccc1 [PHENELZINE]	Not Active	Not Active	Not Active	Not Active	Not Active	Not Active	Not Active	–	–	–	–	–	–	–	–
COc1ccc2c(c1OC)C(=O)O[C@@H]2[C@H]1c2c(cc3c(c2OC)OCO3)CCN1C [NOSCAPINE]	Not Active	Not Active	Not Active	Not Active	Not Active	Not Active	Not Active	–	–	–	–	–	–	–	–
CCN(CC)CCNC(=O)c1ccc(N)cc1 [PROCAINAMIDE]	Not Active	Not Active	Not Active	Not Active	Not Active	Not Active	Not Active	–	–	–	–	–	–	–	–
CN(C)CCC=C1c2ccccc2CCc2ccccc21 [AMITRIPTYLINE]	Not Active	Not Active	Not Active	–	–	Not Active	Not Active	Not Active	Not Active	182	62	–	–	–	–
C[C@@H]1C/C=C/C=C/C=C/C=C/[C@H](O[C@@H]2O[C@H](C)[C@@H](O)[C@H](N)[C@@H]2O)C[C@@H]2O[C@](O)(C[C@@H](O)C[C@H]3O[C@@H]3/C=C/C(=O)O1)C[C@H](O)[C@H]2C(=O)O [NATAMYCIN]	Not Active	Not Active	Not Active	Not Active	Not Active	Not Active	Not Active	–	–	–	–	–	–	–	–
NC12CC3CC(CC(C3)C1)C2 [AMANTADINE]	Not Active	Not Active	Not Active	Not Active	Not Active	Not Active	Not Active	–	–	–	–	–	–	–	–
